Measured values reported in patent US20220273660A1, “MEK INHIBITOR FOR TREATMENT OF STROKE” (EDVINCE AB, priority 2019, published 2022).

How the values were obtained:
[1] = test system: rat subarachnoid haemorrhage model; assay: Rat SAH model, intraperitoneal treatment, myograph of basilar arteries; format: in vivo; settings: SAH + i.p. treatment at 6 and 24 hours
Description: For contractility measurements, both incubated BAs (ex vivo) and BAs after surgical procedure (in vivo) were cut into segments and mounted on a pair of metal wires (40 μm) in a myograph bath. The arteries from OC were mounted the same way after 48 hours in media. One wire was attached to a micro-meter screw which allows for fine adjustments of the distance between the wires, controlling the vascular tone.
The segments were equilibrated in physiological buffer aerated with 95% O2/5% CO2, pH of 7.4, temperature set at 37° C. and the wires were separated for isometric pretension at 2 Nm^−1. The arterial segments were exposed two or three times with 60 mM K^+, by exchanging the buffer with a 60 mM K^+ buffer solution. To maintain equal osmolarity, a proportional amount of Na^+ had been removed from the buffer. An absolute cut-off was set at 2.0 mN K^+max for inclusion of arterial segments from rats that underwent the surgical procedure. Endothelium function was evaluated with the addition of 5-HT (3.10^−7 M) followed by carbachol (10^−5 M). For arteries from the OC the protocol was as followed: first a cumulative concentration-response curve to sarafotoxin 6C (S6c, 10^−14-10^−7 M), followed by a concentration-response curve to endothelin-1 (ET-1, 10^−14-10^−7 M). […]

ETB receptor = assay: Intracellular flow cytometry of SMC expressing ETB receptor after SAH; format: in vivo, rat; settings: i.p. at 6 and 24 h post-SAH
Description: The MCAs, BA and the circle of Willis were pooled from one rat. The VSMCs of the cerebral arteries was isolated by a novel technique advanced by the present inventors based on two other protocols (Navone et al, 2013, Nat Protoc; van Beijnum et al, 2008, Nat Protoc). The tissue were disrupted mechanically (scalpel) and then subjected to enzymatic digestion with highly purified Collagenase I and Collagenase II. Isolated cell suspensions were fixed with 4% paraformaldehyde for 30 minutes, washed with PBS and thereafter permeabilized with 0.25% TritonX-100. Cells were resuspended in blocking buffer containing 5% donkey serum and double-stained overnight at 4° C. with primary goat anti-SM22α (1:100, Abcam) or goat isotope control IgG (5 μg/mL, Abcam) and primary antibody rabbit anti-ETB (1:100, Abcam) or rabbit isotope control IgG (10 μg/mL, Abcam) in the same blocking buffer. […] Finally, cell suspensions were diluted to a final volume of 0.5 mL with PBS before analyzed by fluorescent-activated cell sorting (FACS) on the BD FACSVerse machine (BD Biosciences, USA). Fluorescence was induced with a 640 nm red laser. The ratio of SM22α-positive cells expressing ETB was calculated in each sample. Data was analyzed by the BD FACSuite Software.

[2] = test system: rat subarachnoid hemorrhage model; assay: In vivo SAH, intraperitoneal trametinib, ET-1 concentration-response in BAs (Example 11)
Description: Thirty-two rats were operated for this study. Animals were treated intraperitoneally with 250 μl/body weight of a 1 mM solution of trametinib (Selleckchem), yielding a final dose of 95 μg/body weight, diluted in 10% cremophor and 10% PEG400 in NaCl. Animals in the vehicle and sham group were treated with 250 μl/body weight 10% cremophor and 10% PEG400 in NaCl. Treatment was intraperitoneally administered either at 1 h and 24 h or 6 h and 24 h post surgery. Animals were terminated 48 h after surgery by CO2 anesthesia and decapitation.

## CC(=O)Nc1cccc(-n2c(=O)n(C3CC3)c(=O)c3c(Nc4ccc(I)cc4F)n(C)c(=O)c(C)c32)c1 [trametinib]
[1]
  ET-1 contractility (at 10^-9.5 M) vs SAH+i.p. vehicle: significant decrease in contractility
  contractile response of BAs to 60 mM K+: 3.03±0.19 Nm-1
ETB receptor
  increased ETB receptor protein expression in SMC: not significant abolished
[2]; i.p. 1 mM at 1 and 24 h post-SAH
  increased ET-1-induced concentration-response curve in BAs after SAH: significantly inhibited
[2]; i.p. 1 mM at 6 and 24 h post-SAH
  increased ET-1-induced concentration-response curve in BAs after SAH: significantly inhibited
